Some test systems named below: ACHN renal; COLO 205 colon; HOP-92 NSCLC; OVCAR-3 ovarian; SF-539 CNS; SK-MEL-2 melanoma; SK-OV-3 ovarian; SNB-19 CNS; SW-620 colon.
Assay in all cases: NCI tumour cell line growth inhibition, 48 h

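Values below derive from 48-hour exposures of cells grown in 96-well plates, with endpoints linearly interpolated between the two concentrations bracketing the appropriate inhibition level. GI50 marks 50% less growth. TGI denotes the concentration required for complete inhibition of growth.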

In the case of `C=C1C(O)C2C(=C(CC(C)C)C13CC3)C(=O)C(C)(C)C2OC` (centres undefined), the GI50 in the experiment on ACHN renal was above 100 µM; with COLO 205 colon, above 100 µM; with HOP-92 NSCLC it was 97 µM; with OVCAR-3 ovarian it was above 100 µM; in the experiment on SF-539 CNS, above 100 µM; in the experiment on SK-MEL-2 melanoma it was above 100 µM. For the same molecule, the GI50 with SK-OV-3 ovarian, in the experiment with SNB-19 CNS and in the experiment with SW-620 colon was above 100 µM in each case. In addition, the TGI in the experiment on ACHN renal, in the experiment with COLO 205 colon, in the experiment with HOP-92 NSCLC, in the experiment on OVCAR-3 ovarian, with SF-539 CNS and in the experiment on SK-MEL-2 melanoma was above 100 µM throughout. Moreover, the TGI in the experiment with SK-OV-3 ovarian, with SNB-19 CNS and with SW-620 colon was above 100 µM throughout.
Turning to `O=C(O)c1nnsc1COCc1ccccc1`, the TGI in the experiment with ACHN renal, with COLO 205 colon, in the experiment on HOP-92 NSCLC, in the experiment on OVCAR-3 ovarian, in the experiment on SF-539 CNS and with SK-MEL-2 melanoma was above 100 µM each time. Also, the TGI in the experiment on SK-OV-3 ovarian, in the experiment with SNB-19 CNS and in the experiment with SW-620 colon was above 100 µM in each case.
For `O=C1NC(=O)C(c2ccccc2Cl)=C1Nc1cccc(O)c1`, the GI50 in the experiment with ACHN renal is above 25 µM; in the experiment on COLO 205 colon it was 7.17 µM; with HOP-92 NSCLC it was 8.53 µM; in the experiment with OVCAR-3 ovarian it was 4.95 µM; in the experiment on SF-539 CNS it was 8.93 µM; with SK-MEL-2 melanoma, 1.99 µM. The GI50 in the experiment on SK-OV-3 ovarian was 4.99 µM; in the experiment on SNB-19 CNS, 21.4 µM; in the experiment with SW-620 colon it was 1.47 µM. Besides, the TGI was above 25 µM with ACHN renal; above 21.6 µM with COLO 205 colon; above 25 µM in the experiment with HOP-92 NSCLC; above 25 µM in the experiment with OVCAR-3 ovarian; above 25 µM in the experiment with SF-539 CNS; above 25 µM with SK-MEL-2 melanoma. Also, the TGI in the experiment on SK-OV-3 ovarian, with SNB-19 CNS and in the experiment on SW-620 colon was above 25 µM throughout.
For `N#C/C(=C(\O)C(=O)O)c1ccc(-c2cccc3ccccc23)cc1`, the TGI with ACHN renal, with COLO 205 colon, with HOP-92 NSCLC, with OVCAR-3 ovarian, in the experiment with SF-539 CNS and in the experiment with SK-MEL-2 melanoma was above 100 µM each time. Further, the TGI in the experiment on SK-OV-3 ovarian, with SNB-19 CNS and in the experiment on SW-620 colon was above 100 µM each time.
Turning to `O=C1/C(=C\c2cccs2)Oc2ccccc21`, the TGI in the experiment on ACHN renal is above 100 µM; in the experiment on COLO 205 colon, above 100 µM; in the experiment on HOP-92 NSCLC, 89 µM; in the experiment on OVCAR-3 ovarian, above 100 µM; in the experiment on SK-MEL-2 melanoma, above 100 µM; in the experiment on SK-OV-3 ovarian, above 100 µM. The TGI in the experiment on SNB-19 CNS and in the experiment on SW-620 colon was above 100 µM throughout.
On to `CN(C)CCNC(=O)c1cccc(CO)c1[N+](=O)[O-]`, for which the TGI in the experiment with ACHN renal, in the experiment with COLO 205 colon, with OVCAR-3 ovarian, with SF-539 CNS, in the experiment with SK-MEL-2 melanoma and in the experiment on SK-OV-3 ovarian was above 100 µM throughout. In addition, the TGI in the experiment on SNB-19 CNS and in the experiment on SW-620 colon was above 100 µM in each case.
As to `CC/C=C\C[C@H](O)C/C=C1/C(=O)C=C[C@@H]1C/C=C\CCCC(N)=O`, the GI50 in the experiment with ACHN renal was 1.64 µM; in the experiment with COLO 205 colon, 2.11 µM; with HOP-92 NSCLC, 3.15 µM; in the experiment with OVCAR-3 ovarian it was 1.26 µM; in the experiment with SK-MEL-2 melanoma it was 2.31 µM; with SK-OV-3 ovarian, 3.96 µM. The values for the GI50 with SNB-19 CNS and in the experiment on SW-620 colon were 7.43 µM and 1.58 µM, respectively. Further, the TGI worked out at 3.35 µM with ACHN renal; 4.72 µM with COLO 205 colon; 6.74 µM in the experiment with HOP-92 NSCLC; 4.22 µM in the experiment with OVCAR-3 ovarian; 5.69 µM in the experiment on SK-MEL-2 melanoma; 12.8 µM with SK-OV-3 ovarian. Moreover, the figures for the TGI in the experiment with SNB-19 CNS and in the experiment with SW-620 colon were 21.6 µM and 5.33 µM, respectively.
Consider `COC1C(=O)CCC2(CO2)C1(O)C1(C)OC1CCC(C)C` (centres undefined), for which the TGI in the experiment with ACHN renal, with COLO 205 colon, in the experiment on HOP-92 NSCLC, with OVCAR-3 ovarian, in the experiment on SF-539 CNS and in the experiment with SK-OV-3 ovarian was above 100 µM throughout. In addition, the TGI in the experiment on SNB-19 CNS and with SW-620 colon was above 100 µM throughout.
With `NC(N)=N/N=C/c1c(-c2cc(Cl)sc2Cl)nc2n1CCS2`, the GI50 with ACHN renal is 8.31 µM; with OVCAR-3 ovarian it was 8.81 µM; with SF-539 CNS, 7.43 µM; in the experiment with SK-MEL-2 melanoma, 22.6 µM; with SW-620 colon, 10.5 µM. The TGI in the experiment with ACHN renal is 15.1 µM; in the experiment with OVCAR-3 ovarian, 17.3 µM; in the experiment on SF-539 CNS it was 15.2 µM; in the experiment with SK-MEL-2 melanoma, above 50 µM; with SW-620 colon it was 20.5 µM.
For the molecule `O=C1OCC2=Nc3cccc4cccc(c34)N12`, the TGI with ACHN renal, in the experiment with COLO 205 colon, with OVCAR-3 ovarian, in the experiment with SF-539 CNS, with SK-OV-3 ovarian and in the experiment with SNB-19 CNS was above 100 µM in each case. The molecule also showed a TGI in the experiment on SW-620 colon above 100 µM.
Consider `COc1cc2ccc3c4cc(OC)c(OCc5ccccc5)cc4cnc3c2cc1OC`, for which the TGI with ACHN renal, in the experiment with COLO 205 colon, in the experiment on OVCAR-3 ovarian, in the experiment on SK-MEL-2 melanoma, in the experiment on SK-OV-3 ovarian and in the experiment on SW-620 colon was above 100 µM each time.
For the molecule `O=C(N=Nc1c(O)[nH]c2ccccc12)c1ccccc1O`, the TGI is above 100 µM in the experiment with ACHN renal; above 100 µM in the experiment on COLO 205 colon; above 100 µM in the experiment with OVCAR-3 ovarian; above 100 µM in the experiment with SF-539 CNS; 63.6 µM in the experiment with SK-MEL-2 melanoma; 46.6 µM with SK-OV-3 ovarian. For the same molecule, the TGI in the experiment on SNB-19 CNS and in the experiment on SW-620 colon was above 100 µM throughout.
With `COc1ccc([N+](=O)[O-])c2c(NCC(O)CO)ccnc12` (centres undefined), the TGI in the experiment with ACHN renal is above 100 µM; in the experiment with COLO 205 colon, 53.6 µM; in the experiment on OVCAR-3 ovarian, 70 µM; with SF-539 CNS, 90.1 µM; with SK-MEL-2 melanoma, 71.9 µM; in the experiment with SK-OV-3 ovarian, above 100 µM. The TGI in the experiment with SNB-19 CNS and in the experiment on SW-620 colon was above 100 µM throughout.
Take `O=C1C=C(c2cc(Br)c(O)c(Br)c2)/C(=C/c2cc(Br)c(O)c(Br)c2)O1`: the GI50 is 29.4 µM in the experiment on ACHN renal; 29.8 µM in the experiment on COLO 205 colon; 15.4 µM in the experiment with HOP-92 NSCLC; 21 µM in the experiment with OVCAR-3 ovarian; 24 µM in the experiment on SF-539 CNS; 38.5 µM in the experiment with SK-MEL-2 melanoma. The GI50 is 14 µM in the experiment with SNB-19 CNS and 29.7 µM with SW-620 colon. Further, the TGI was above 75 µM in the experiment on ACHN renal; above 75 µM with COLO 205 colon; above 75 µM in the experiment on HOP-92 NSCLC; 71 µM with OVCAR-3 ovarian; above 75 µM in the experiment with SF-539 CNS; above 75 µM in the experiment on SK-MEL-2 melanoma. Further, the TGI in the experiment on SNB-19 CNS and with SW-620 colon was above 75 µM in each case.

(Values after PubChem BioAssay (NCI).)
